Laboratory results taken from patent US20230167120A1, “ARYL-FUSED ISOSELENAZOLE COMPOUND CONTAINING TETRAZINE SUBSTITUENT, SYNTHESIS METHOD THEREFOR, AND USE THEREOF” (KEAISE MEDICINE WUHAN CORP., priority 2020, published 2023).

Assays:
[1] = tested on: U251MG human glioma cells; experiment: In-vitro anti-cancer activity screening, SRB method, U251MG; type: cell-based; settings: U-251
Description: (§1) Referring to the method of example 9, two tumor cell lines, U251MG and U251TR human glioma cells, were selected, and temozolomide and the compounds of the present disclosure were subjected to in-vitro anti-cancer activity screening using the SRB method.

[2] = tested on: human glioma cell U87; experiment: In-vivo antitumor activity, U87 tumor-bearing nude mice, i.g. dosing; design: species or system Balb/c nude mice; settings: q.d., end of the experiment; for Tumor volume: 11 days
Text: The tumor emergence rate was 100%.
The solvent was freshly prepared when needed each day.

[3] = tested on: U251TR human glioma cells; experiment: In-vitro anti-cancer activity screening, SRB method, U251TR; type: cell-based; settings: Glioma cell, drug-resistant strain
Description: as §1

[4] = tested on: human pancreatic carcinoma cells (Panc1); experiment: In-vitro growth inhibition, MTT method, Panc1; type: cell-based; settings: PANC-1, 48 h
Description: (§2) The in-vitro growth inhibitory activity of compounds 1 to 8 of the present disclosure against human glioma cells (U87 and LN229), human hepatoma cells (SMMC-7721) and human pancreatic carcinoma cells (Panc1) was studied adopting the MTT method.
(§3) U87, LN229, SMMC-7721 and Panc1 cells growing at log phase were separately inoculated into a 96-well plate at a density of 5×10^4 cells/mL, 180 μL/well. After the cells were attached to the wall, 20 μL of a drug liquid was added to each well, so that the final concentrations of the drug were 0 μM, 5 μM, 10 μM, 20 μM and 50 μM. After 48 h of action, a 5 mg/mL MTT solution (20 μL/well) was added. After the cells were incubated in a CO2 incubator for 3 to 4 h, the supernatant was carefully discarded. After the residual liquid was air-dried, acidified isopropanol (50 μL of concentrated hydrochloric acid dissolved in 500 mL of isopropanol) was added at […], and the plate was shaken on a shaker for 30 min. After the crystals were completely dissolved, absorbance OD values were measured by a microplate reader at 570 nm.
(§4) Cell viability %=(drug-treated cell OD−blank group OD)/(control cell OD−blank group OD)×100
(§5) Cell killing rate %=1−cell viability %

[5] = tested on: human glioma cells (U87); experiment: In-vitro growth inhibition, MTT method, U87; type: cell-based; settings: Glioma cell, 48 h
Description: as §2
as §3, with “After the cells were attached to the wall, 20 μL of a drug liquid was added to each well, so that the final concentrations of the drug were 0 μM, 5 μM, 10 μM, 20 μM and 50 μM.” left out
as §4, §5

[6] = tested on: human hepatoma cells (SMMC-7721); experiment: In-vitro growth inhibition, MTT method, SMMC-7721; type: cell-based; settings: 48 h
Description: as §2, §3, §4, §5

[7] = tested on: human glioma cells (LN229); experiment: In-vitro growth inhibition, MTT method, LN229; type: cell-based; settings: LN-229, 48 h
Description: as §2, §3, §4, §5

[8] = tested on: human glioma cell U87; experiment: Pharmacodynamic study in human glioma cell U87 subcutaneous model; type: in vivo, Balb/c nude mice; settings: compounds 20 mg/Kg, q.d.×14 days
Text: The route of administration was intragastric administration ([…]., q.d.×14 days).

[9] = tested on: human glioma cell U87; experiment: Tumor volume inhibition rate, i.v. dosing; type: in vivo, Balb/c nude mice; settings: Mus musculus, iv, TMZ 10 mg·kg^−1, i.v.
Description: In addition, low-dosage 0409 (20 mg·kg^−1, i.v.) and TMZ (10 mg·kg^−1, i.v.) were synchronously used for an assay to determine the volume tumor inhibition rate.

[10] = target: T1, thioredoxin reductase (TrxR) (Homo sapiens, UniProt Q16881); settings: read-out: Inhibitory activity against thioredoxin reductase (IC50) TrxR; cellular total protein, NADPH, DTNB, 405 nm
T1 sequence (Q16881 1-649): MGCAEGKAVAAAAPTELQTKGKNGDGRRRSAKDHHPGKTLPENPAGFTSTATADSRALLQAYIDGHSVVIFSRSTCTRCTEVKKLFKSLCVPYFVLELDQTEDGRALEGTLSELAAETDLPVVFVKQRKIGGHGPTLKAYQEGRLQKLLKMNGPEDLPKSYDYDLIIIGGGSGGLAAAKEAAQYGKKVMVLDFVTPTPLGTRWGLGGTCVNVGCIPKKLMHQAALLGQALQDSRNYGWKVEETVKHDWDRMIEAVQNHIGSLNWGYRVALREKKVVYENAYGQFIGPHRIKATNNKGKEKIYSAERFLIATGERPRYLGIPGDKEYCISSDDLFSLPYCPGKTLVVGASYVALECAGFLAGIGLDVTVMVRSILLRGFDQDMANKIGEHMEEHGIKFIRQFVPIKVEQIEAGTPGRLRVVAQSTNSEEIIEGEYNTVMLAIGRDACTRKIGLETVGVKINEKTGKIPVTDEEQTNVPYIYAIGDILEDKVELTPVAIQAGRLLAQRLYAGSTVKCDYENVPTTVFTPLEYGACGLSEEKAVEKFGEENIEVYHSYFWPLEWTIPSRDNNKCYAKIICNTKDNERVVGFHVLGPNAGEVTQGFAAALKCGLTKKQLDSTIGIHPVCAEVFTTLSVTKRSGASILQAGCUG
Description: The cellular total protein (i.e. thioredoxin reductase) was extracted and the concentration was determined. 30 μg of protein sample was added to a 96-well plate (3 replicate wells per concentration), and the volume was made up to 80 μL with 0.1 M sodium phosphate buffer. The protein samples were incubated in an oven at 37° C. for 30 min.
The absorbance was immediately measured at 405 nm using a microplate reader (FlexStation 3, Molecular Devices). Shaking was performed for 10 s before the first reading, and determination was performed once every 15 s, 30 times in total. The maximum reaction rate was taken as an enzymatic activity index. The experiment was independently repeated three times.

[11] = 0409 high-dose group 90 mg·kg^−1, i.g.
[12] = 0409 low-dose group 45 mg·kg^−1, i.g.
[13] = 240 h, Day 10, 20 mg·kg^−1, i.v.
[14] = 264 h, Day 11, 20 mg·kg^−1, i.v.
[15] = 288 h, Day 12, 20 mg·kg^−1, i.v.
[16] = 312 h, Day 13, 20 mg·kg^−1, i.v.
[17] = 336 h, Day 14, 20 mg·kg^−1, i.v.
[18] = 360 h, Day 15, 20 mg·kg^−1, i.v.
[19] = 384 h, Day 16, 20 mg·kg^−1, i.v.
[20] = 408 h, Day 17, 20 mg·kg^−1, i.v.
[21] = 432 h, Day 18, 20 mg·kg^−1, i.v.

Structure (SMILES)	IC50 [1]	IC50 [3]	IC50 [4]	IC50 [5]	IC50 [6]	IC50 [7]	Tumor inhibition rate ([8]; Day 1)	Tumor inhibition rate ([8]; Day 4)	Tumor inhibition rate ([8]; Day 7)	Tumor inhibition rate ([8]; Day 10)	Tumor inhibition rate ([8]; Day 14 (end of the experiment))	inhibition in vivo at 20 mg/kg [9, 13]	inhibition in vivo at 20 mg/kg [9, 14]	inhibition in vivo at 20 mg/kg [9, 15]	inhibition in vivo at 20 mg/kg [9, 16]	inhibition in vivo at 20 mg/kg [9, 17]	inhibition in vivo at 20 mg/kg [9, 18]	inhibition in vivo at 20 mg/kg [9, 19]	inhibition in vivo at 20 mg/kg [9, 20]	inhibition in vivo at 20 mg/kg [9, 21]	other results
Cn1nnc2c(C(=O)NCCn3[se]c4ccccc4c3=O)ncn2c1=O [Compound 1, 3,4-dihydro-3-methyl-4-oxo-N-(3(2H)-oxo-1,2-benzisoselenazol-2-yl)-ethyl-imidazo[5,1-d]-1,2,3,5-tetrazine-8-carboxamide]	48.9 ± 9.33 µM	51.9 ± 21.9 µM	17.8 ± 3.44 µM	21 ± 3.07 µM	12 ± 1.57 µM	14.4 ± 2.24 µM	5.86%	58.78%	78.57%	74.77%	81.42%	74.8%	73.8%	69.8%	79.8%	81.4%	80.5%	78.5%	82.3%	81.7%	Tumor volume [2, 11]: 90.00±32.64 mm^3; Tumor proliferation inhibition rate [2, 11]: 83.97%; Tumor weight [2, 11]: 0.12 ± 0.04 g; Tumor volume [2, 12]: 96.70±24.08 mm^3; Tumor proliferation inhibition rate [2, 12]: 82.78%; Tumor weight [2, 12]: 0.20 ± 0.10 g
O=c1c2ccccc2[se]n1CCCCn1[se]c2ccccc2c1=O [BS, Butaselen]																					IC50 [10]: 1.14 ± 0.17 µM
Cc1ccc2[se]n(CCNC(=O)c3ncn4c(=O)n(C)nnc34)c(=O)c2c1 [Compound 6, 3,4-dihydro-3-methyl-4-oxo-N-(3(2H)-oxo-5-methyl-1,2-benzisoselenazol-2-yl)-ethyl-imidazo[5,1-d]-1,2,3,5-tetrazine-8-carboxamide]	1.26 ± 0.83 µM	29.4 ± 3.21 µM	29.3 ± 0.42 µM	19.2 ± 3.77 µM	11.2 ± 2.11 µM	11.3 ± 0.82 µM	9.05%	68.76%	84.09%	86.55%	92.48%	91.5%	91.6%	90.1%	88.5%	88%	88.9%	87.5%	88.5%	88.3%	
